Assay results from paper PMC6949113, “Preclinical evaluation of AT-527, a novel guanosine nucleotide prodrug with potent, pan-genotypic activity against hepatitis C virus” (PLoS ONE, 2020).
Like-named read-outs stand apart in the source and are kept apart here.

Legend:
[1] = system: K562 cells; assay: Mitochondrial toxicity assay (Mitochondrial ToxGlo, glucose/galactose); assay type: cell-based, human
Procedure: (§1) Mitochondrial toxicity assay. K562 leukemia cells (ATCC, CCL-243) seeded in 96-well plates (1x10^5 cells/well) were incubated in triplicate with test or positive control compounds in RPMI containing glucose, 10% FBS and 2 mM L-glutamine. […] Viability was compared with untreated cells to determine TC50 values. Separately, K562 cells were incubated in triplicate with test compounds in glucose-free RPMI supplemented with 10 mM galactose. Test compounds diluted in RPMI containing glucose were evaluated in parallel.

[2] = system: SDH-A protein in PC3 cells; assay: Mitobiogenesis toxicity assay, SDH-A; assay type: cell-based, human; conditions: 5 days, read-out: Mitogenesis IC50 SDH-A
Procedure: (§2) Mitobiogenesis toxicity assay. […] One plate was used to measure cell viability by XTT staining. Cells in the remaining two plates were fixed with 4% paraformaldehyde for 20 min, washed thrice with DPBS, and 0.5% acetic acid added for 5 min to block endogenous alkaline phosphatase activity. Nuclear DNA encoded Complex II SDH-A mitochondrial protein and mitochondrial encoded Complex IV COX-1 protein were measured spectrophotometrically using the Abcam Mitobiogenesis ELISA kit (Cambridge, UK) per the manufacturer’s instructions.

[3] = system: COX-1 protein in PC3 cells; assay: Mitobiogenesis toxicity assay, COX-1; assay type: cell-based, human; conditions: 5 days, read-out: Mitogenesis IC50 COX-1
Procedure: as §2

[4] = system: PC3 cells; assay: PC3 cytotoxicity (XTT, 5 days); assay type: cell-based, human; conditions: PC3 cells, 5 days, XTT
Procedure: as §2

[5] = system: K562 cells; assay: K562 cytotoxicity (XTT, 3 days); assay type: cell-based, human; conditions: K562 cells, glucose medium, 3 days, XTT
Procedure: as §1

[6] = Intracellular metabolism in human hepatocytes; assay type: in vitro ADME
Procedure: (§3) Hepatocytes. […] Cryopreserved male mouse (CD1), and fresh male Beagle dog and male cynomolgus monkey hepatocytes were obtained from BioreclamationIVT (Baltimore, MD) and were similarly plated with Matrigel in 6- or 24-well plates and maintained overnight in InVitroGRO™HI medium with Torpedo™ antibiotic (BioreclamationIVT). The protocol described above for measuring AT-511 and its metabolites in Huh-7 cells was repeated with the five different hepatocytes. Untreated cells were collected at 24 h, and the protein content of the cell lysates were determined using a bicinchoninic acid protein assay kit to assess the number of cells in each incubation. Separately, plated human hepatocytes were incubated for 6 h with 100 μM AT-511, followed by washout periods of 0, 2, 6, 18 and 30 h.
(§4) S3 Protocol. LC-MS/MS analysis of AT-511 and metabolites in cultured cells. The supernatant extracts of each hepatocyte and Huh-7 cell incubation were separately analyzed by four different LC-MS/MS methods for quantitation of phosphoramidates, nucleosides, monophosphates, and triphosphates (methods 1, 2, 3 and 4, respectively), using synthetic reference standards of actually and potentially present compounds and using structurally related analogs as internal standards. Briefly, a Luna PFP (2), 5 µm, 100 x 4.6 mm column and an AB Sciex API-6500 mass spectrometer (ESI positive ion, MRM mode) were used for methods 1-3 and an XBridge Oligonucleotide, BEH C18, 2.5 µm, 50 x 2.1 mm column and a Thermo QE Plus mass spectrometer (electrospray, negative ion mode) were used for method 4. For methods 1 and 2, mobile phases A (10 mM ammonium acetate in water) and B (acetonitrile:methanol, 1:1, v/v) were used to elute samples (5 µL) at 1 mL/min with 15% B for 1.5 min followed by a linear gradient to 75% B over 1 min (method 1) or with 54% B for 1.3 min followed by a linear gradient to 90% B over 1.2 min. Method 3 was the same except mobile phase A was 0.3% acetic acid in water, […] and samples were eluted with 3% B for 3 min followed by a linear gradient to 55% B over 1.2 min. For method 4, mobile phase A (3 mM ammonium formate with 10 mM dimethylhexylamine (DMHA) in water) and mobile phase B (3 mM ammonium formate with 10 mM DMHA in acetonitrile:water, 1:1, v/v) were used to elute samples at 0.4 mL/min with 0% B for 1.5 min followed by a linear gradient to 100% B over 2 min and ending with an isocratic elution for 0.5 min at 100% B.

[7] = Monkey PK study, liver and heart tissue levels; assay type: in vivo, cynomolgus monkey; conditions: cynomolgus monkey, in vivo
Description: (§5) Monkey PK study. Male non-naïve cynomolgus monkeys were obtained from Hainan Jingang Laboratory Animal Co., Ltd. (Hainan, China), group housed during the 5-day acclimation period or individually housed during the study in stainless steel mesh cages, provided ad libitum access to RO water, fed twice daily (~120 g Certified Monkey Diet daily; Beijing Vital Keao Feed Co., Ltd., Beijing, China) and given daily treats of fresh fruit. Additional environmental enrichment included classical music and cartoons. Three groups of 5 monkeys each were administered 30, 100 or 300 mg/kg AT-527 as a powder filled in empty porcine hard gelatin capsules (size 0). The monkeys were fasted overnight prior to dosing and fed 4 h after dosing. Three dosages were selected to provide assessments of dose proportionality, the top two representing potential doses for a repeated oral dose toxicity study in monkeys, and the lowest predicted to be more therapeutically relevant. A pill gun was used to place the capsule beyond the root of the animals’ tongues and their mouths were held loosely closed for approximately 30 sec to allow them to move the jaw and swallow the capsule. Immediately following capsule administration, 20 mL of water was given by mouth and then the mouth was opened to ensure the capsule was swallowed. Blood samples (~0.6 mL) were collected up to 72 h from three animals per dose group, and up to 4 h from the remaining two animals in each group, at the same time points described for rats. […] Blood samples were collected with a syringe from a peripheral blood vessel from restrained, non-sedated animals, immediately transferred to pre-chilled tubes containing ~1 mg K2EDTA•2H20 and 20 μL of 5 mM dichlorvos solution, mixed and placed on ice until plasma was prepared by centrifugation as described for rats. Immediately after centrifugation, plasma samples were extracted with 4 volumes ISS2, and the supernatants were clarified by centrifugation (12,000 rpm, 10 min, 4°C) and stored at ≤ -60°C until analyzed by LC-MS/MS as described below. After the 4-hr blood collection, two monkeys per dose group were anesthetized with intravenous injection of pentobarbital sodium (60 mg/kg) and then euthanized as described for rats. […] All analytes were quantitated by LC-MS/MS as described below.
For the analysis of AT-9010 in rat tissue homogenate supernatant, aliquots were diluted 1:2 with water and injected onto an Agilent Zorbax Extend C18 5 μm, 2.1 × 50 mm column and a Sciex API 4000 mass spectrometer (ESI positive ion, MRM mode). Mobile phases A (0.001% ammonia and 0.18 mM DBAA in water (1:1, v/v) and B (10 mM dimethylhexylamine (DMHA) and 3 mM AA in 50% ACN in water) were used to elute samples (60 μL) at 0.7 mL/min with 2% B for 0.8 min followed by a linear gradient to 30% B over 0.4 min, isocratic elution at 30% B for 0.4 min, a linear gradient to 95% B over 0.4 min, and ending with 95% B for 0.4 min. The analysis of AT-9010 in monkey tissue homogenate supernatant was the same except the sample injection volume was 20 μL. Attempts to measure tissue levels of other potentially formed TPs, including 2,6-diaminopurine-2’-F-2’-C-methylribosyl-5’-triphosphate and 2-amino-6-methylaminopurine-2’-F-2’-C-methylribosyl-5’-triphosphate (M2-TP), also used this method.
For the analysis of M2 and M3 in monkey tissue homogenate supernatant, aliquots were diluted 1:3 with water and injected onto an Acuity HSS T3 1.8 μm, 2.1 × 50 mm column and a Sciex API 6500 mass spectrometer (ESI positive ion, MRM mode). Mobile phases A (0.3% FA and 10 mM AA in water and B (0.3% FA and 10 mM AA in 95% ACN in water) were used to elute samples (1 μL) at 0.6 mL/min with 0% B for 0.4 min followed by linear gradients to 30% B over 0.5 min and to 95% B over 0.2 min, ending with isocratic elution at 95% B for 0.4 min.

[8] = Rat pharmacokinetic study, plasma; assay type: in vivo, Sprague-Dawley rat; conditions: for plasma concentration, individual rats: AT-527 500 mg/kg oral, male 1-3, female 7-9, BQL: <0.0017 AT-511, <0.0022 M1, <0.0032 AT-273, M4
[9] = Intracellular metabolism in dog hepatocytes; assay type: in vitro ADME, Beagle dog; conditions: low to undetectable
Procedure: as §3, §4

[10] = Intracellular metabolism in mouse hepatocytes; assay type: in vitro ADME, mouse (CD1); conditions: low to undetectable
Procedure: as §3, §4

[11] = Monkey PK study, plasma; assay type: in vivo, cynomolgus monkey; conditions: for plasma concentration: male cynomolgus monkeys; for AUC(0-t) / Cmax / MRT last / Tmax: male, cynomolgus, cynomolgus monkey, in vivo, po;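 on plasma concentration: concentrations in nmol/mL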
Description: as §5
LC-MS/MS analysis of rat and monkey plasma and tissue homogenate supernatants. For the analysis of AT-511 in rat plasma, aliquots were extracted with 10 volumes ISS2. The supernatants were clarified by centrifugation (4000 rpm for 10 min at 4°C) and 3 μL samples were injected onto an Acuity BEH C18 1.7 μm, 2.1 × 50 mm column and a Sciex API 4000 mass spectrometer (ESI positive ion, MRM mode). Mobile phases A (0.025% formic acid (FA) and 1 mM ammonium acetate (AA) in 5% ACN in water) and B (0.025% FA and 1 mM AA in 95% ACN in water) were used to elute samples (3 μL) at 0.6 mL/min with 10% B for 0.3 min followed by linear gradients to 60% B over 0.6 min and to 90% B over 0.2 min, and ending with 90% B for 0.4 min.
PK data analysis. […] The linear/log trapezoidal rule was applied in obtaining the PK parameters.

[12] = both sexes, Sprague-Dawley, rat, in vivo, po, 500 mg/kg

C[C@@H]1CC[C@@]2(OC1)O[C@H]1[C@@H](O)[C@H]3[C@@H]4CC[C@H]5C[C@@H](O[C@@H]6O[C@H](CO)[C@H](O[C@@H]7O[C@H](CO)[C@@H](O)[C@H](O[C@@H]8OC[C@@H](O)[C@H](O)[C@H]8O)[C@H]7O[C@@H]7O[C@H](CO)[C@H](O)[C@H](O[C@@H]8O[C@H](CO)[C@@H](O)[C@H](O)[C@H]8O)[C@H]7O)[C@H](O)[C@H]6O)[C@H](O)C[C@]5(C)[C@H]4CC[C@]3(C)[C@H]1[C@@H]2C [Digitonin]
IC50 ([1]; Homo sapiens, K562, 2 h, read-out: MF (Gal) IC50, mitochondrial function): 27.9 µM | IC50 ([1]; Homo sapiens, K562, glucose-free galactose medium, 2 h, measure of necrosis, read-out: MI (Gal) IC50, cell membrane integrity): 31.9 µM | IC50 ([2]; Homo sapiens, PC-3, 120 h): 40.7 µM | IC50 ([3]; Homo sapiens, PC-3, 120 h): 32.6 µM | Cytotoxicity TC50 [4]: 27.2 µM | Cytotoxicity TC50 [5]: 8.1 µM

N#CC(C#N)=NNc1cccc(Cl)c1 [CCCP]
IC50 ([1]; K562, glucose-free galactose medium, 2 h, inhibition of cellular ATP levels, read-out: MF (Gal) IC50, mitochondrial function): < 0.6 µM | IC50 ([1]; K562, glucose-free galactose medium, 2 h, measure of necrosis, read-out: MI (Gal) IC50, cell membrane integrity): 7 µM | IC50 [2]: 13.5 µM | IC50 [3]: 15.1 µM | Cytotoxicity TC50 [4]: 17.7 µM | Cytotoxicity TC50 [5]: 8.8 µM

CNc1nc(N)nc2c1ncn2[C@@H]1O[C@H](COP(=O)(O)OP(=O)(O)OP(=O)(O)O)[C@@H](O)[C@@]1(C)F [5’-TP of M2, 2-amino-6-methylaminopurine-2’-F-2’-C-methylribosyl-5’-triphosphate]
intracellular detection [6]: not detected | concentration in liver and heart tissue [7]: < 110 pmol/g

CNc1nc(N)nc2c1ncn2[C@@H]1O[C@H](CO)[C@@H](O)[C@@]1(C)F [M4]
intracellular levels of nucleoside metabolites ([6]; human hepatocytes, low to undetectable): < 10 pmol/10^6 cells | plasma concentration, individual rats ([8]; 48.0 h): BQL | plasma concentration, individual rats ([8]; 72.0 h): BQL | AUC(0-t) [8, 12]: 207 ± 56.1 µM·h | Cmax [8, 12]: 28800 ± 8500 nM | MRT last [8, 12]: 6.41 ± 1.06 h | intracellular levels of nucleoside metabolites [9]: < 10 pmol/10^6 cells | intracellular levels of nucleoside metabolites [10]: < 10 pmol/10^6 cells | plasma concentration ([11]; single oral AT-527 100 mg/kg, 0.500 h, monkey 1): BQL | plasma concentration ([11]; single oral AT-527 100 mg/kg, 72.0 h, monkey 2): BQL | plasma concentration ([11]; single oral AT-527 300 mg/kg, 0.500 h, monkey 1): BQL | plasma concentration ([11]; single oral AT-527 300 mg/kg, 0.500 h, monkey 2): BQL | plasma concentration ([11]; single oral AT-527 300 mg/kg, 0.500 h, monkey 3): BQL | plasma concentration ([11]; single oral AT-527 300 mg/kg, 1.00 h, monkey 1): BQL | plasma concentration ([11]; single oral AT-527 300 mg/kg, 72.0 h, monkey 3): BQL | AUC(0-t) ([11]; 30 mg/kg): 18.2 ± 1.7 µM·h | Cmax ([11]; 30 mg/kg): 670 ± 140 nM | MRT last ([11]; 30 mg/kg): 22.4 ± 2.4 h | Tmax ([11]; 30 mg/kg): 14.7 ± 8.1 h | AUC(0-t) ([11]; 100 mg/kg): 39.2 ± 15 µM·h | Cmax ([11]; 100 mg/kg): 1300 ± 490 nM | MRT last ([11]; 100 mg/kg): 22.3 ± 4.1 h | Tmax ([11]; 100 mg/kg): 15.3 ± 7.6 h | AUC(0-t) ([11]; 300 mg/kg): 53.9 ± 31.7 µM·h | Cmax ([11]; 300 mg/kg): 1660 ± 490 nM | MRT last ([11]; 300 mg/kg): 26.6 ± 9.6 h | Tmax ([11]; 300 mg/kg): 17.3 ± 11.5 h
